Data set [1] can be described thus: Drug transport experiments, Caco-2 monolayer. The data set is classed as in vitro ADME. The conditions noted are these: human, 1 × 10^−4 M. From the text: The experiment started with the preparation of the Caco-2 monolayer, which occurred by seeding the cells (20,000/well) in Millicell plates (Millipore, Milan, Italy). Its growth was followed for 21 days by changing the medium occasionally and measuring its transepithelial electrical resistance (TEER) daily using an epithelial voltohmmeter (Millicell-ERS) until at least […] was reached.
After 21 days, the plate was washed twice with Hank’s balanced salt solution (HBSS) (Invitrogen). After the second wash, the wells were filled with buffer, and the plate was kept at 37 °C for 30 min. After the incubation time, the HBSS buffer was replaced with the solutions of the compounds to be tested at a concentration of 1 × 10^−4 M. The plates were placed in an incubator at 37 °C for 120 min. The apparent permeability (Papp), in units of nm s^−1, was calculated.

A further data set deals with T1, P-gp (Homo sapiens, UniProt P08183).
T1 construct: expressed in transfected cells; host or cells: MDCK-MDR1
Put plainly: Calcein-AM experiment in MDCK-MDR1 cells. Format: cell-based. Here is the method:
Here, 3 × 10^4 MDCK-MDR1 cells/well were seeded (100 µL) in a black 96-well culture plate and incubated in CO2 (5%) at 37 °C O/N. The compounds to be tested were added at different concentrations (0.1–100 µM) in 100 µL of culture medium and then incubated for 30 min. […] The fluorescence of the wells containing the tested compounds was compared with that of those containing the untreated cells. The percentage of fluorescence as a function of log[dose] allowed the EC50 values to be determined.

For another data set, the system named is SH-SY-5Y spheroids. Put plainly: 3D cell viability assay (CellTiter-Glo 3D, ATP). The data set is classed as cell-based, human. The conditions noted are these: 72 h; for viability at 100 µM: Homo sapiens, SH-SY5Y, ATP assay, mean ± SEM; for decrease in cell viability: SH-SY-5Y spheroids, highest concentration (100 µM). (ATP-based viability assays read luminescence as a measure of living cells.)

The next data set addresses T2, BCRP (Homo sapiens, UniProt Q9UNQ0).
T2 construct: expressed in transfected cells; host or cells: MDCK-BCRP
T2 sequence (Q9UNQ0 1-655): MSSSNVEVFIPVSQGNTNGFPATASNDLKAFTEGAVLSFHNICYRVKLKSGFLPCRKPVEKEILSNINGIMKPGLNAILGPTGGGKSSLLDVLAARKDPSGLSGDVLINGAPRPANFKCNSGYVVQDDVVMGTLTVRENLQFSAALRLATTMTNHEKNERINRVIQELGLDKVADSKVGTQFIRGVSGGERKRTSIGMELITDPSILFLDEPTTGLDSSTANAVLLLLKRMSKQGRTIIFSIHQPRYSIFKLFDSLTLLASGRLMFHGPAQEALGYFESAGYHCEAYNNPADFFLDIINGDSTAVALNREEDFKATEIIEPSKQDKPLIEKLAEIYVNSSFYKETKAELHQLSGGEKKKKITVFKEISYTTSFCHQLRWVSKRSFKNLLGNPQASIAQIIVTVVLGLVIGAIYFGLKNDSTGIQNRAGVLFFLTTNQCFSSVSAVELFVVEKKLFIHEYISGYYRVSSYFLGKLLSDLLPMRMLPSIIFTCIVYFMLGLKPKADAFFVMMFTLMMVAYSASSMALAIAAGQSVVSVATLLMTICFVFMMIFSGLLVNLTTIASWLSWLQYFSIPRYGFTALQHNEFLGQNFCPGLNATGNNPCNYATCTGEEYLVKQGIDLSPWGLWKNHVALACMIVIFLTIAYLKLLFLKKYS
Briefly: Hoechst 33342 experiment in MDCK-BCRP cells. The conditions noted are these: Hoechst 33342, MDCK-BCRP cells. Format: cell-based.

The next data set deals with SK-N-AS spheroids. Briefly: 3D cell viability assay (CellTiter-Glo 3D, ATP). The conditions noted are these: 72 h; for viability at 100 µM: Homo sapiens, SK-N-AS, ATP assay, mean ± SEM; for decrease in cell viability: SK-N-AS spheroids, highest concentration (100 µM). Format: cell-based, human.
The next data set addresses T3, hClpP (Homo sapiens, UniProt Q16740).
T3 construct: made in house; host or cells: E. coli BL21-CodonPlus (DE3)-RIL
Briefly: FITC-casein hClpP activity test. Format: biochemical. The conditions noted are these: 100 µM, normalized to 100 µM ONC201 activity. The procedure:
To assess the potency of the proteolytic activity of hClpP, a FITC–casein assay was performed. In a black, flat-bottom, 96-well plate, a 3 μM solution of purified hClpP in assay buffer (50 mM of HEPES, pH 7.5, 300 mM of KCl, 1 mM of DTT, 15% v/v glycerol; AB) preincubated at 37 °C for 15 min was added to 5 μL of the tested compounds in DMSO at different concentrations (ranging from 1 to 100 μM) and incubated for 15 min at 37 °C under shaking. As a control, three wells were filled with 5 µL of DMSO. The kinetic measurement was started after adding 2 µM of the fluorogenic peptides FITC and casein (Merck, C3777), used as hydrolytic substrates. The fluorescence of the cleaved FITC was recorded over 60 min at 37 °C on a Tecan Infinite M200 Pro (λex: 485 nm, emission λem: 535 nm, gain: 60). The slope in the linear range between 600 and 1800 s was determined and plotted against time. The EC50 for each tested compound was calculated using GraphPad Prism 7.05. Results are reported as the mean of two independent experiments performed in triplicate.

In another data set the test system is SU-DIPG-50 cells. Briefly: 2D cell viability assay (CCK8). The data set is classed as cell-based, human. The conditions noted are these: SU-DIPG-50, 100 µM, 72 h exposure. The procedure:
(§1) Patient-derived diffuse intrinsic pontine glioma cell cultures (SU-DIPG-36, SU-DIPG-50) were provided by Dr Michelle Monje (Institutional Review Board (Stanford University) approval). The cells were cultured as a monolayer in media that was changed once a week at 37 °C in 5% CO2 by using Tumor Stem Media composed by: a 1:1 ratio of DMEM/F12 (Invitrogen)/Neurobasal (-A) (Invitrogen), B27 (-A) (Life Technologies, Milan, Italy), 20 ng/mL of human basic fibroblast growth factor (Life Technologies), 20 ng/mL of recombinant human epidermal growth factor (Life Technologies), 10 ng/mL of platelet-derived growth factor-AA, 10 ng/mL of platelet-derived growth factor-BB (Life Technologies), and 20 ng/mL of heparin (StemCell Technologies, Milan, Italy).
(§2) Then, 1 × 10^4 SU-DIPG-36 or SU-DIPG-50 cells/well in 100 µL of culture medium were seeded into 96-well plates and incubated O/N at 37 °C in CO2 (5%). […] Control wells with DMSO were used to evaluate the possible cytotoxicity of the solvent. […] Then, the absorbance was red (λ = 450 nm) with Tecan Infinite 200. GraphPad Prism allowed for the determination of IC50.

The next data set relates to SU-DIPG-36 cells. Briefly: 2D cell viability assay (CCK8). The data set is classed as cell-based, human. The note with it: SU-DIPG-36, 100 µM, 72 h exposure. Here is the method:
as §1, §2

T1 sequence (P08183 whole entry): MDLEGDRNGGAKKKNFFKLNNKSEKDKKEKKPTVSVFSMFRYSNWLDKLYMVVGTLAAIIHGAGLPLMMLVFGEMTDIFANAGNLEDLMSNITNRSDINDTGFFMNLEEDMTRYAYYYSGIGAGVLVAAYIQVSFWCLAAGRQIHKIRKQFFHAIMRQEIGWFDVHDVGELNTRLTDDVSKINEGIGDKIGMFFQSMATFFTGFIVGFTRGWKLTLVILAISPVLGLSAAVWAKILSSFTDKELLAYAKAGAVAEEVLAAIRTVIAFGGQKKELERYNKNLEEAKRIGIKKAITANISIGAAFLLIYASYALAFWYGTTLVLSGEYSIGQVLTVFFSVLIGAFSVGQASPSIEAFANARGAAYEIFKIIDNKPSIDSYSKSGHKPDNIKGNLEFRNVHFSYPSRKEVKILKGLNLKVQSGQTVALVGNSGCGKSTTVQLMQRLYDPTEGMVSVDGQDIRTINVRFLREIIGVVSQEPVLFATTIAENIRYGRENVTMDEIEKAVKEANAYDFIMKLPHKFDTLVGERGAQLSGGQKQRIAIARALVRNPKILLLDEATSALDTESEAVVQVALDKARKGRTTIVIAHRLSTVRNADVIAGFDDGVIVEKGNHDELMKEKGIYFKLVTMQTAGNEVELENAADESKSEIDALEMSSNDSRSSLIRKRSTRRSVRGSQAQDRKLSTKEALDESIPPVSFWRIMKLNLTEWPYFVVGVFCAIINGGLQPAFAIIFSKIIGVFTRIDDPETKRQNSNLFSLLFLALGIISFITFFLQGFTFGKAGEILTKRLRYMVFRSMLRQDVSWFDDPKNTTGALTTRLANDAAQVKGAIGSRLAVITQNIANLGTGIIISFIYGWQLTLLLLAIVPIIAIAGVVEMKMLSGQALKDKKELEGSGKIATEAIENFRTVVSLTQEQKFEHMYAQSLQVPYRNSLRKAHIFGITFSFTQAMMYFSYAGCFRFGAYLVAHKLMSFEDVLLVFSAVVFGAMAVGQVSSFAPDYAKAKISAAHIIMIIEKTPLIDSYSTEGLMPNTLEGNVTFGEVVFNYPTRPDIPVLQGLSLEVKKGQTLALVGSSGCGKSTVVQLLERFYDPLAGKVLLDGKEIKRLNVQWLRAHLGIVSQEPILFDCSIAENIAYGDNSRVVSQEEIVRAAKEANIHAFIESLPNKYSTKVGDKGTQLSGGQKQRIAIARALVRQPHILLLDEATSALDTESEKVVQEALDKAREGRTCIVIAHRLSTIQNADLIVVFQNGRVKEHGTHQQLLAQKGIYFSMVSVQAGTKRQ
T3 sequence (Q16740 with tags, fused parts or gaps): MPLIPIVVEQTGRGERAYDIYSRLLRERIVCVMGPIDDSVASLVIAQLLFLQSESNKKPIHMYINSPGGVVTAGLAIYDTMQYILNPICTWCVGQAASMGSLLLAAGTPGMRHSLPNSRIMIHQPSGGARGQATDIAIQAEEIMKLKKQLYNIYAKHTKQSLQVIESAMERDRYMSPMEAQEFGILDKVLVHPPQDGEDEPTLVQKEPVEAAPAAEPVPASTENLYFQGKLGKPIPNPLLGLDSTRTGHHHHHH
Method for BCRP: Firstly, 3 × 10^4 MDCK-BCRP cells/well were seeded (100 µL) in a 96-well black culture plate and brought to O/N confluence in a 5% CO2 incubator at 37 °C. Different concentrations (0.1–100 µM) of the compounds in the culture medium (100 µL) to be tested were added, and the plate was incubated for 30 min. […] The supernatant was aspirated, and the cells were fixed for 20 min with 4% PFA (100 µL), protecting them from light. Three washes with ice-cold PBS and three washes with saline buffer followed, and then the plate was analyzed (λex 350 nm and λem 460 nm) by Victor3 (PerkinElmer). EC50 values were calculated from the percentage increase in fluorescence compared to log[dose].

Take `COc1ccc2c3c([nH]c2c1)C(C)=NCC3` [Harmaline, 7-methoxy-1-methyl-4,9-dihydro-3H-pyrido[3,4-b]indole]: in data set [1] (Caco-2, apical-basolateral), the Papp A→B (usually the apparent permeability from the apical to the basolateral side of a cell layer) at 120 min is 49.6 ×10⁻⁶ cm/s. In addition, the Papp B→A (usually the apparent permeability from the basolateral to the apical side of a cell layer) at 120 min in data set [1] (Caco-2, basolateral-apical) turned out to be 254 ×10⁻⁶ cm/s. Moreover, the EC50 (as a rule, the concentration giving half of the maximal effect) on P-gp is more than 100 µM; at BCRP, 14.9 µM. The viability (commonly the share of living cells, or the viability signal relative to a control) at 100 µM in the data set on SH-SY-5Y spheroids amounted to 67.5 ± 13.9%; with SK-N-AS spheroids, 44.2 ± 24.2%. Further, the “decrease in cell viability” value is given as ~ 32.5% with SH-SY-5Y spheroids and ~ 56% in the data set on SK-N-AS spheroids. For the same molecule, the “activation of hClpP” value at hClpP turned out to be 28%. Also, the results for the “cancer cell death (cytotoxic effect)” value in the data set with SU-DIPG-50 cells and in the data set on SU-DIPG-36 cells were 50% and 34%, respectively.
For the molecule `Cc1ccccc1CN1C(=O)C2=C(CCN(Cc3ccccc3)C2)N2CCN=C12` [ONC201, reference compound], at P-gp, the EC50 is 13.4 µM. Besides, the viability at 100 µM with SH-SY-5Y spheroids worked out at 13.7 ± 6.23%; in the data set with SK-N-AS spheroids, 17.5 ± 6.8%. For the same molecule, the “decrease in cell viability” value with SH-SY-5Y spheroids and in the data set on SK-N-AS spheroids was ~ 85% each time. The “cancer cell death (cytotoxic effect)” value is listed as 70% in the data set on SU-DIPG-50 cells and 83% in the data set with SU-DIPG-36 cells.

(Values after PMC10821046, “Harmaline to Human Mitochondrial Caseinolytic Serine Protease Activation for Pediatric Diffuse Intrinsic Pontine Glioma Treatment” (Pharmaceuticals, 2024).)
